Earlier results on 1 molecule are cited in US20180235869A1, “METHODS AND COMPOSITIONS FOR SOFT ANTICHOLINERGIC ZWITTERIONS” (Bodor Laboratories, Inc., priority 2015, published 2018).

Molecules are shown by their SMILES.

For this data set the following is noted: solid oral form.

Regarding `C[N+]1(C)CCC(OC(=O)C(O)(c2ccccc2)C2CCCC2)C1` (stereo not drawn) [glycopyrrolate], the reducing drooling entry (children) is reported as “effective in reducing drooling”. Further, the “dropped out of the study because of adverse effects” value (children, most with cerebral palsy) is given as “over 20%”. The “children affected by adverse events” value (most with cerebral palsy) is 69%.
